This note sets out measurements from ChEMBL document CHEMBL4270552, “4-(Phenoxy) and 4-(benzyloxy)benzamides as potent and selective inhibitors of mono-ADP-ribosyltransferase PARP10/ARTD10” (Eur J Med Chem, 2018).

Structures are written as SMILES. Some results are limits rather than exact numbers.

Experiment [1] deals with T1, Protein mono-ADP-ribosyltransferase PARP10 (Homo sapiens, UniProt Q53GL7).
T1 sequence (Q53GL7 whole entry): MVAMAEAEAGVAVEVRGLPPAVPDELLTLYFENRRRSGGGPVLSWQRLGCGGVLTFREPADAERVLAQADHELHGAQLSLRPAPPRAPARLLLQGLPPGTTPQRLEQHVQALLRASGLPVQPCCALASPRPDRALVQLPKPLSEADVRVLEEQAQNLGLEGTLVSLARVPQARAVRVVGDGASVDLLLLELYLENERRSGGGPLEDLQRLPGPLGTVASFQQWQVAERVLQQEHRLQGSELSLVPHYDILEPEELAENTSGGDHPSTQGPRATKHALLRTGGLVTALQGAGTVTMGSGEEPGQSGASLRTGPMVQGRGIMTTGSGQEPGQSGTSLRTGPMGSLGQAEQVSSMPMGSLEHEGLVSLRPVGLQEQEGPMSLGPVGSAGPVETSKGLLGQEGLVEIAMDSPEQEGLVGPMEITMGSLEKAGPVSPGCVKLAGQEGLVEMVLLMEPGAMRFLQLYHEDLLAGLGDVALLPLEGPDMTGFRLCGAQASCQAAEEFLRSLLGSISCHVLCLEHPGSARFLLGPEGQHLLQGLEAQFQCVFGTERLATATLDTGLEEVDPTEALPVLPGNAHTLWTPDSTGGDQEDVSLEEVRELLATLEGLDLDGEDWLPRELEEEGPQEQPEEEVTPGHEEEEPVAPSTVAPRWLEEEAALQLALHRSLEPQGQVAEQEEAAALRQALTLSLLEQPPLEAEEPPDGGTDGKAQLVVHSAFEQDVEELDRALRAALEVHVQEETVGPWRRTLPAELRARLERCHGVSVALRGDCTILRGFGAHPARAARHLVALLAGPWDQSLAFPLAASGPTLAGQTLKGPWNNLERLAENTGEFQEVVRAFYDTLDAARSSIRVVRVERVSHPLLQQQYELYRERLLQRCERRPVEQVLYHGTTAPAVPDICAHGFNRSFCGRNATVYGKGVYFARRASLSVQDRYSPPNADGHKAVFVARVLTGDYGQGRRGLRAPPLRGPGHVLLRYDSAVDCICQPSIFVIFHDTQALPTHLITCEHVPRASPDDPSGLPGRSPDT
Description: Inhibition of C-terminal His-tagged human ARTD10 (809 to 1017 residues) expressed in Escherichia coli Rosetta2 (DE3) using SRPK2 as substrate after 13 hrs in presence of NAD+.

Experiment [2] deals with T2, Protein mono-ADP-ribosyltransferase PARP10 (Homo sapiens) (UniProt Q53GL7).
T2 sequence (whole entry): T1 sequence (Q53GL7 whole entry)
Description: Stabilization of C-terminal His-tagged human ARTD10 (809 to 1017 residues) expressed in Escherichia coli Rosetta2 (DE3) assessed as change in melting temperature at 100 uM by SYPRO Orange-dye based differential scanning fluorimetric method

The target in experiment [3] is Protein mono-ADP-ribosyltransferase PARP9 (Homo sapiens) (UniProt Q8IXQ6).
Description: Stabilization of human ARTD9 expressed in Escherichia coli assessed as change in melting temperature at 100 uM by SYPRO Orange-dye based differential scanning fluorimetric method
Experiment [4] has as its target T3, Protein mono-ADP-ribosyltransferase PARP12 (Homo sapiens, UniProt Q9H0J9).
T3 sequence (Q9H0J9 whole entry): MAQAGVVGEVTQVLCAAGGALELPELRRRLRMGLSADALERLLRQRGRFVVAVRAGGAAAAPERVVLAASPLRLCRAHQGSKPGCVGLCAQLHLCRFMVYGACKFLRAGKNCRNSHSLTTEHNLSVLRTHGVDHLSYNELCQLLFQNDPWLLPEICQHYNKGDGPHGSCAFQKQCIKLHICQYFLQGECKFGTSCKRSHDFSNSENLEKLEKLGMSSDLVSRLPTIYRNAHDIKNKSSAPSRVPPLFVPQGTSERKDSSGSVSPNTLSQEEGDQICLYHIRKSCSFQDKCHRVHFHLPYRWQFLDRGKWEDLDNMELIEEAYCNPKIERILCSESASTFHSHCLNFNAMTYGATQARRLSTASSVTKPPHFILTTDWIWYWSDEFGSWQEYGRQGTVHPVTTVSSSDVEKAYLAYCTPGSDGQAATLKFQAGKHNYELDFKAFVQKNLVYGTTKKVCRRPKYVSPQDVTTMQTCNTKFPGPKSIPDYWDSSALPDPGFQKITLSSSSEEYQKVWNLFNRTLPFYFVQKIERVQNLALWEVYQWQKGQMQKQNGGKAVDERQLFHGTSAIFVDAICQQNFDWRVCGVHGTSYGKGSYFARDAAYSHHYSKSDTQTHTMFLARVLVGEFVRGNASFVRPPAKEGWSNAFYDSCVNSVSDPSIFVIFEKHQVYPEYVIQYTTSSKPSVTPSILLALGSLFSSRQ
Description: Inhibition of N-terminal His-tagged thioredoxin-fused human ARTD12 (469 to 701 residues) expressed in Escherichia coli Rosetta2 (DE3) after 20 hrs in presence of NAD+.

In experiment [5] the target is Protein mono-ADP-ribosyltransferase PARP4 (Homo sapiens, UniProt Q9UKK3). Briefly: Inhibition of N-terminal His-tagged human ARTD4 (250 to 565 residues) expressed in Escherichia coli Rosetta2 (DE3) using TCEP as substrate after 2.5 hrs in presence of NAD+.
The target in experiment [6] is Zinc finger CCCH-type antiviral protein 1 (Homo sapiens) (UniProt Q7Z2W4).
Chain of Zinc finger CCCH-type antiviral protein 1 (Homo sapiens) (Q7Z2W4 whole entry): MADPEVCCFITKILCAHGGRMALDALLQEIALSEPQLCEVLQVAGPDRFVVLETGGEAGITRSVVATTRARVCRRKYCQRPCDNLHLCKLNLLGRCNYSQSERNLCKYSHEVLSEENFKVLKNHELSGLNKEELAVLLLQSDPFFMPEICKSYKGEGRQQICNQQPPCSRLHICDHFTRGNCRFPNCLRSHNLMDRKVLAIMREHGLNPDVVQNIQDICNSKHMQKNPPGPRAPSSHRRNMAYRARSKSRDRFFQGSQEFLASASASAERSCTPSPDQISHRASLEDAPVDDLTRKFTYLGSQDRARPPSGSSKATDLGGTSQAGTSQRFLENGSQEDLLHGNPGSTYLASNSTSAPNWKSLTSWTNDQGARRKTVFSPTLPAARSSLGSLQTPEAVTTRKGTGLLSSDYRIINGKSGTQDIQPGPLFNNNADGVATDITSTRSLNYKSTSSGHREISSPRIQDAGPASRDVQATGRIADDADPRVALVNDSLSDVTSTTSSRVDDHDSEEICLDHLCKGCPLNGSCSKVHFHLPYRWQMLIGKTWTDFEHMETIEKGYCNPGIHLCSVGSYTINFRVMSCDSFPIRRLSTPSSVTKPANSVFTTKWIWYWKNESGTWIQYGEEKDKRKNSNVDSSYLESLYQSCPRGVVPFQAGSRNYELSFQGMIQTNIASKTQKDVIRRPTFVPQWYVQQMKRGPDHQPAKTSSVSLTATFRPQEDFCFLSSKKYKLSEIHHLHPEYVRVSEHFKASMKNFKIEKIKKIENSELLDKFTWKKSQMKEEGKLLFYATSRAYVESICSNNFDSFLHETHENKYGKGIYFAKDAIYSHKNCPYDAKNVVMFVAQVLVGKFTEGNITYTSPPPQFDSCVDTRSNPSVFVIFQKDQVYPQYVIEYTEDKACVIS
Description: Stabilization of human ARTD13 expressed in Escherichia coli assessed as change in melting temperature at 100 uM by SYPRO Orange-dye based differential scanning fluorimetric method

Chain of Protein mono-ADP-ribosyltransferase PARP4 (Q9UKK3 whole entry, the tested form may be a part): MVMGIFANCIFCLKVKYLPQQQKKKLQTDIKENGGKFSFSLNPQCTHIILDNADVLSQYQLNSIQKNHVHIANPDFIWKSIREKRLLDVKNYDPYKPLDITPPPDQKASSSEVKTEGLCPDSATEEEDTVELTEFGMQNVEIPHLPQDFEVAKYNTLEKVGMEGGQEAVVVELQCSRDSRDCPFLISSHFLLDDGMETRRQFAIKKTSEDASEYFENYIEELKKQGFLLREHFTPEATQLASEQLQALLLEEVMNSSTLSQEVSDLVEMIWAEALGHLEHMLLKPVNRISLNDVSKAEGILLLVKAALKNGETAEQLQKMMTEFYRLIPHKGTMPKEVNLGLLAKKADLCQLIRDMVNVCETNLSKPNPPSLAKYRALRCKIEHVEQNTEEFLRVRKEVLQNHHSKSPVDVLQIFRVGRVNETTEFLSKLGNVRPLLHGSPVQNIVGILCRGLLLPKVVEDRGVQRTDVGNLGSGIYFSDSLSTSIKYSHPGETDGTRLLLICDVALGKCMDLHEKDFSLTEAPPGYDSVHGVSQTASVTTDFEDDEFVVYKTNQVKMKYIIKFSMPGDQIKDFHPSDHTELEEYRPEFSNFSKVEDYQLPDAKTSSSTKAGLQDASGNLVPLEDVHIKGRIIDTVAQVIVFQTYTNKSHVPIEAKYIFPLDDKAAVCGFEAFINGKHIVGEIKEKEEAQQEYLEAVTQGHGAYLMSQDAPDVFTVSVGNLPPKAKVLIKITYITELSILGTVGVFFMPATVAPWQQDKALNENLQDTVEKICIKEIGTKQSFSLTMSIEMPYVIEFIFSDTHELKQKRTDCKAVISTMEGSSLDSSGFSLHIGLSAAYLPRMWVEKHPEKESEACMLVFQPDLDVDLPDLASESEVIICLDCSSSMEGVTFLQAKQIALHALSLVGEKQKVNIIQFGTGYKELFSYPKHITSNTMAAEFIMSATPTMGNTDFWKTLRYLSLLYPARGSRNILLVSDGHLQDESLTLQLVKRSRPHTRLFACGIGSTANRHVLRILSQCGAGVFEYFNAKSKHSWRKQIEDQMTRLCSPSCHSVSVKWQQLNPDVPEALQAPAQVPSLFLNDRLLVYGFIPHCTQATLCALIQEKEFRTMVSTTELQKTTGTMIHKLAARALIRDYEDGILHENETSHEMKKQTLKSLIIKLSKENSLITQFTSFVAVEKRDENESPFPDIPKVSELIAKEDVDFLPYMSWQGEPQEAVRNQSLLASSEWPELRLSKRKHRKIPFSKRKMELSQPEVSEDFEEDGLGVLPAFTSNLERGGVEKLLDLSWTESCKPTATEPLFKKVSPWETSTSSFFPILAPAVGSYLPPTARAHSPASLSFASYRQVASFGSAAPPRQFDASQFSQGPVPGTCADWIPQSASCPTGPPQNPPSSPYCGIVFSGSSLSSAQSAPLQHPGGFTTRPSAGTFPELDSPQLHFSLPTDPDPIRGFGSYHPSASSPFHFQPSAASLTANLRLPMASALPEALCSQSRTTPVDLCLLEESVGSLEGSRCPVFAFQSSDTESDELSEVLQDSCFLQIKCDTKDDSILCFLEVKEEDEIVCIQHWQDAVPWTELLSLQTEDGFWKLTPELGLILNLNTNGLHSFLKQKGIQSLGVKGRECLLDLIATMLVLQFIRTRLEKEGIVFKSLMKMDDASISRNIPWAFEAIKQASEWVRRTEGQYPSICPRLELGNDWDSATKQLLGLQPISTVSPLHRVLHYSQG

On to `NC(=O)c1ccc(OC(=O)c2ccccc2)cc1`, for which the IC50 in experiment [1] (read-out: IC50) was 7300 nM; in experiment [1] (read-out: pIC50 (converted)), 7240 nM.

By ΔTm is commonly meant the shift of the melting midpoint relative to a reference. On to `NC(=O)c1ccc(Oc2ccc(C(N)=O)cc2)cc1`, for which the ΔTm came to 3.8 °C in experiment [2], 0.72 °C in experiment [3] and 0.4 °C in experiment [6]. Further, the figures for the IC50 in experiment [4] and in experiment [5] were greater than 10000 nM and 23000 nM, respectively.

`NC(=O)c1ccc(OCCOc2ccccc2)cc1`: the figures for the IC50 in experiment [1] (read-out: IC50) and in experiment [1] (read-out: pIC50 (converted)) were 1900 nM and 1950 nM, respectively.

`NC(=O)c1ccc(OC2CCC2)cc1`: the IC50 in experiment [1] (read-out: IC50) was 720 nM; in experiment [1] (read-out: pIC50 (converted)) it was 724 nM.

Turning to `NC(=O)c1ccc(Oc2ccccc2)cc1`, the IC50 in experiment [1] (read-out: IC50) is 1100 nM; in experiment [1] (read-out: pIC50 (converted)) it was 1150 nM.

In the case of `NC(=O)c1ccc(COc2ccc(C(N)=O)cc2)cc1`, the IC50 in experiment [1] (read-out: IC50) stood at 2000 nM.

For the compound `NC(=O)c1ccc(OCc2ccccc2)cc1`, the IC50 is 1400 nM in experiment [1] (read-out: IC50) and 1350 nM in experiment [1] (read-out: pIC50 (converted)).

With `NC(=O)c1ccc(OCc2ccccc2Br)cc1`, the IC50 in experiment [1] (read-out: IC50) and in experiment [1] (read-out: pIC50 (converted)) was 3800 nM throughout.

As to `Cc1ccc(COc2ccc(C(N)=O)cc2)cc1`, the results for the IC50 in experiment [1] (read-out: IC50) and in experiment [1] (read-out: pIC50 (converted)) were 9300 nM and 9330 nM, respectively.

`NC(=O)c1ccc(OCc2ccc(F)cc2)cc1`: the figures for the IC50 in experiment [1] (read-out: IC50) and in experiment [1] (read-out: pIC50 (converted)) were 7900 nM and 7940 nM, respectively.

Turning to `Cc1cc(C)cc(COc2ccc(C(N)=O)cc2)c1`, the figures for the IC50 in experiment [1] (read-out: IC50) and in experiment [1] (read-out: pIC50 (converted)) were 4500 nM and 4570 nM, respectively.

For the compound `NC(=O)c1ccc(OCc2ccccn2)cc1`, the IC50 in experiment [1] (read-out: IC50) and in experiment [1] (read-out: pIC50 (converted)) was 1350 nM in each case.

On to `NC(=O)c1ccc(Oc2ccc(O)cc2)cc1`, for which the IC50 in experiment [1] (read-out: IC50) is 1800 nM; in experiment [1] (read-out: pIC50 (converted)), 1740 nM.

As to `CC(C)Oc1ccc(C(N)=O)cc1`, the IC50 in experiment [1] (read-out: IC50) was 1300 nM; in experiment [1] (read-out: pIC50 (converted)), 1260 nM.

In the case of `NC(=O)c1ccc(OCc2cccc3ccccc23)cc1`, the IC50 in experiment [1] (read-out: IC50) was 1400 nM; in experiment [1] (read-out: pIC50 (converted)) it was 1450 nM.

Consider `NC(=O)c1ccc(OCc2cccc(F)c2)cc1`, for which the IC50 in experiment [1] (read-out: IC50) was 3300 nM; in experiment [1] (read-out: pIC50 (converted)), 3310 nM.

With `NC(=O)c1ccc(Oc2ccc(N)cc2)cc1`, the figures for the IC50 in experiment [1] (read-out: IC50) and in experiment [1] (read-out: pIC50 (converted)) were 1300 nM and 1260 nM, respectively.

`NC(=O)c1ccc(Oc2ccccc2F)cc1`: the IC50 in experiment [1] (read-out: IC50) and in experiment [1] (read-out: pIC50 (converted)) was 1700 nM in each case.

As to `CCOc1ccc(C(N)=O)cc1`, the IC50 in experiment [1] (read-out: IC50) was 3500 nM; in experiment [1] (read-out: pIC50 (converted)), 3390 nM.

For `COc1ccc(Oc2ccc(C(N)=O)cc2)cc1`, the results for the IC50 in experiment [1] (read-out: IC50) and in experiment [1] (read-out: pIC50 (converted)) were 1400 nM and 1380 nM, respectively.
